Source: the supplement of paper PMC11061612

Experiments:
Test in all cases: Bliss excess, mean over the matrix (fraction); higher = more synergy
[1] = test system: LC4-1 (B-Lymphoblastic Leukemia)
In short: (§1)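 Bliss excess equals the observed combination effect minus the expected value EA + EB − EA·EB, where EA and EB are the effects of each agent alone. Combination Emax is the second-highest inhibition within the matrix. Inhibition was scaled from CellTiter-Glo 2.0 luminescence, with 0 set by vehicle wells and 1 by blank wells, after 72 hours of two-drug dosing of cells plated in 1536-well plates.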

[2] = test system: DG-75 (Burkitt's Lymphoma)
In short: as §1

[3] = test system: PF-382 (T-Lymphoblastic Leukemia)
In short: as §1

[4] = test system: EBC-1 (Squamous Cell Lung Carcinoma)
In short: as §1

[5] = test system: EW-3 (Ewing's Sarcoma)
In short: as §1

[6] = test system: KYSE-50 (Esophageal Squamous Cell Carcinoma)
In short: as §1

[7] = test system: GOTO (Neuroblastoma)
In short: as §1

[8] = test system: LOU-NH91 (Squamous Cell Lung Carcinoma)
In short: as §1

[9] = test system: OCUB-M (Breast Carcinoma)
In short: as §1

[10] = test system: EW-18 (Ewing's Sarcoma)
In short: as §1

[11] = test system: H-EMC-SS (Chondrosarcoma)
In short: as §1

[12] = test system: EMC-BAC-2 (Non-Small Cell Lung Carcinoma)
In short: as §1

[13] = test system: NB7 (Neuroblastoma)
In short: as §1

[14] = test system: OCUM-1 (Gastric Carcinoma)
In short: as §1

[15] = test system: OVISE (Ovarian Carcinoma)
In short: as §1

[16] = test system: EW-13 (Ewing's Sarcoma)
In short: as §1

[17] = test system: NCI-H513 (Other Solid Carcinomas)
In short: as §1

[18] = test system: BT-20 (Breast Carcinoma)
In short: as §1

[19] = test system: HuP-T3 (Pancreatic Carcinoma)
In short: as §1

Compound | Bliss excess [1] | Bliss excess [2] | Bliss excess [3] | Bliss excess [4] | Bliss excess [5] | Bliss excess [6] | Bliss excess [7] | Bliss excess [8] | Bliss excess [9] | Bliss excess [10] | Bliss excess [11] | Bliss excess [12] | Bliss excess [13] | Bliss excess [14] | Bliss excess [15] | Bliss excess [16] | Bliss excess [17] | Bliss excess [18] | Bliss excess [19]
COc1cccc(OCCCN)c1-c1cc(Nc2cnc(C#N)cn2)n[nH]1 [Prexasertib] + Cc1cc2ncnn2cc1Nc1ncc2c(n1)n(C1CCOCC1)c(=O)n2C [AZD7648] (first compound max 1 µM, 7x7, partner max 10 µM) | -0.0209 | -0.055 | -0.0131 | -0.0054 | 0.0201 | -0.0296 | -0.0243 | 0.007 | -0.0611 | -0.0679 | -0.021 | -0.019 | -0.0195 | 0.0005 | -0.0333 | -0.015 | 0.0134 | -0.0536 | 0.016
CCN(CCO)CCCOc1ccc2c(Nc3cc(CC(=O)Nc4cccc(F)c4)[nH]n3)ncnc2c1 [AZD2811] + O=C(c1cc(Cc2n[nH]c(=O)c3ccccc23)ccc1F)N1CCN(C(=O)C2CC2)CC1 [Olaparib] (first compound max 1 µM, 7x7, partner max 10 µM) | -0.0598 | 0.0063 | -0.0335 | -0.0077 | -0.103 | 0.0397 | 0.0341 | 0.0461 | -0.0413 | -0.0534 | -0.0353 | 0.0112 | 0.0598 | 0.0383 | -0.0255 | -0.0532 | -0.0203 | 0.0358 | -0.0195
COc1cccc2c1C(=O)c1c(O)c3c(c(O)c1C2=O)C[C@@](O)(C(=O)CO)C[C@@H]3O[C@H]1C[C@H](N)[C@H](O)[C@H](C)O1 [Doxorubicin] + Cc1cc2ncnn2cc1Nc1ncc2c(n1)n(C1CCOCC1)c(=O)n2C [AZD7648] (first compound max 1 µM, 7x7, partner max 10 µM) | 0.111 | 0.0787 | 0.109 | 0.0275 | 0.005 | 0.0331 | 0.0644 | 0.0236 | 0.0696 | 0.0402 | -0.0179 | 0.0828 | 0.0742 | 0.0162 | 0.0341 | 0.0376 | 0.0341 | 0.0371 | 0.0022
C=CCn1c(=O)c2cnc(Nc3ccc(N4CCN(C)CC4)cc3)nc2n1-c1cccc(C(C)(C)O)n1 [AZD1775] + C[C@@H]1COCCN1C2=NC(=NC(=C2)C3(CC3)[S@](=N)(=O)C)C4=C5C=CNC5=NC=C4 [AZD6738] (first compound max 1 µM, partner max 10 µM) | -0.0011 | 0.0482 | -0.0022 | 0.0592 | -0.131 | 0.0328 | -0.0186 | -0.0111 | 0.0642 | -0.0198 | -0.0843 | 0.0125 | -0.025 | -0.0391 | -0.0399 | 0.0217 | -0.0058 | 0.0448 | 0.0338
CN(C)CCCOc1ccc(-c2ccc3ncc4c(c3c2)n(C2CCOCC2)c(=O)n4C)cn1 [AZD0156] + C=CCn1c(=O)c2cnc(Nc3ccc(N4CCN(C)CC4)cc3)nc2n1-c1cccc(C(C)(C)O)n1 [AZD1775] (first compound max 1 µM, partner max 1 µM) | -0.0353 | 0.0097 | -0.0121 | -0.0603 | 0.002 | -0.0116 | 0.0051 | -0.0349 | -0.0958 | -0.0245 | -0.0535 | -0.0289 | -0.0198 | 0.0183 | -0.0374 | 0.0215 | 0.001 | -0.0937 | -0.051
COc1cccc(OCCCN)c1-c1cc(Nc2cnc(C#N)cn2)n[nH]1 [Prexasertib] + C=CCn1c(=O)c2cnc(Nc3ccc(N4CCN(C)CC4)cc3)nc2n1-c1cccc(C(C)(C)O)n1 [AZD1775] (first compound max 1 µM, partner max 1 µM) | 0.0128 | 0.0708 | -0.0038 | 0.0628 | 0.0286 | 0.0242 | 0.0074 | 0.0332 | 0.232 | -0.0615 | 0.0712 | 0.0413 | 0.0708 | 0.0518 | 0.0144 | 0.0788 | 0.0545 | 0.0725 | 0.0054
Cc1cc2ncnn2cc1Nc1ncc2c(n1)n(C1CCOCC1)c(=O)n2C [AZD7648] + CN(C)CCCOc1ccc(-c2ccc3ncc4c(c3c2)n(C2CCOCC2)c(=O)n4C)cn1 [AZD0156] (first compound max 10 µM, 7x7, partner max 1 µM) | 0.0127 | 0.0226 | 0.0685 | 0.0204 | -0.0281 | 0.0078 | -0.0264 | 0.0454 | -0.0055 | -0.0268 | -0.0396 | 0.0137 | 0.0303 | 0.0016 | 0.0265 | -0.0385 | -0.0145 | 0.0154 | -0.0065
CCc1c2c(nc3ccc(O)cc13)-c1cc3c(c(=O)n1C2)COC(=O)[C@]3(O)CC [SN-38] + CN(C)CCCOc1ccc(-c2ccc3ncc4c(c3c2)n(C2CCOCC2)c(=O)n4C)cn1 [AZD0156] (first compound max 0.3 µM, 7x7, partner max 1 µM) | -0.0587 | 0.0751 | 0.0739 | -0.0488 | -0.0679 | -0.0053 | -0.0221 | 0.011 | 0.126 | -0.0607 | -0.0092 | 0.0414 | -0.0027 | -0.0395 | -0.0355 | -0.0589 | 0.0021 | 0.0684 | 0.0438
COc1cccc(OCCCN)c1-c1cc(Nc2cnc(C#N)cn2)n[nH]1 [Prexasertib] + C[C@@H]1COCCN1C2=NC(=NC(=C2)C3(CC3)[S@](=N)(=O)C)C4=C5C=CNC5=NC=C4 [AZD6738] (first compound max 1 µM, 7x7, partner max 10 µM) | -0.0033 | -0.0381 | -0.0558 | -0.0113 | -0.0275 | 0.0034 | -0.0866 | 0.0295 | 0.0421 | -0.0548 | -0.0013 | 0.0076 | -0.0018 | -0.0698 | 0.0341 | 0.0572 | -0.0104 | -0.0218 | 0.0032
CN(C)CCCOc1ccc(-c2ccc3ncc4c(c3c2)n(C2CCOCC2)c(=O)n4C)cn1 [AZD0156] + C[C@@H]1COCCN1C2=NC(=NC(=C2)C3(CC3)[S@](=N)(=O)C)C4=C5C=CNC5=NC=C4 [AZD6738] (first compound max 1 µM, 7x7, partner max 10 µM) | -0.0743 | 0.0645 | 0.0357 | 0.0195 | -0.0721 | 0.0101 | -0.0394 | -0.0001 | -0.026 | 0.0047 | -0.0707 | 0.0272 | 0.0348 | 0.0437 | 0.0317 | 0.0006 | 0.0235 | 0.0152 | 0.0181
COc1cc2c(cc1OCCCCCOc1cc3c(cc1OC)C(=O)N1C=C(C)C[C@H]1C=N3)N=C[C@@H]1CC(C)=CN1C2=O [SG3199] + O=C(c1cc(Cc2n[nH]c(=O)c3ccccc23)ccc1F)N1CCN(C(=O)C2CC2)CC1 [Olaparib] (first compound max 0.001 µM, 7x7, partner max 10 µM) | -0.0371 | 0.0064 | 0.0069 | -0.014 | -0.0613 | -0.0319 | 0.0943 | -0.0224 | -0.0502 | -0.0629 | -0.0812 | -0.0467 | -0.0474 | -0.0653 | -0.0431 | -0.0415 | -0.0325 | -0.0366 | -0.0442
Cc1cc2ncnn2cc1Nc1ncc2c(n1)n(C1CCOCC1)c(=O)n2C [AZD7648] + C[C@@H]1COCCN1C2=NC(=NC(=C2)C3(CC3)[S@](=N)(=O)C)C4=C5C=CNC5=NC=C4 [AZD6738] (first compound max 10 µM, 7x7, partner max 10 µM) | 0.0469 | -0.0477 | 0.0263 | 0.0513 | -0.0607 | -0.0089 | -0.0205 | 0.0337 | 0.0509 | -0.0133 | 0.0095 | 0.0575 | 0.0143 | 0.009 | 0.0508 | 0.0039 | -0.0383 | 0.0399 | -0.0453
Cc1cc2ncnn2cc1Nc1ncc2c(n1)n(C1CCOCC1)c(=O)n2C [AZD7648] + CCN(CCO)CCCOc1ccc2c(Nc3cc(CC(=O)Nc4cccc(F)c4)[nH]n3)ncnc2c1 [AZD2811] (first compound max 10 µM, 7x7, partner max 1 µM) | -0.114 | 0.0393 | 0.0137 | 0.0147 | -0.0156 | 0.0784 | 0.0582 | 0.0693 | -0.0108 | -0.0154 | -0.0452 | 0.0514 | 0.0415 | -0.0093 | -0.0105 | 0.0259 | -0.021 | -0.0432 | 0.0003
